Reference: patent US20240124478A1, “SPIROCYCLIC-SUBSTITUTED 6,7-DIHYDRO-PYRANO[2,3-d]PYRIMIDINE INHIBITORS OF KRAS G12C MUTANT” (Merck Sharp & Dohme LLC, priority 2020, published 2024)
Read-outs that look alike come from different tables or passages of the source.

What was measured:
NCI-H358 cells = assay: Cellular phospho-ERK assay; format: cell-based; conditions: 2 hour incubation, ratio of p-Erk vs total Erk, read-out: IC50 (nM) pERK (Cell)
Experimental: NCI-H358 cells (ATCC® CRL-5807™) were cultured in T150 flask in growth medium (RPMI medium 1640-(ThermoFisher Scientific 61870) containing 10% fetal bovine serum (ThermoFisher Scientific 10091148)). The cells were harvested in growth medium after TrypLE (ThermoFisher scientific 12604021) digestion and were seeded in 384-well collagen coated cell culture plate (Corning 356702) at a density of 15,000 cells/well, and incubated at 37° C., 5% CO2 overnight. The compound dose-response titrations were prepared and appropriate amounts of compounds were dispensed in a 384-well intermediate plate using an Echo 550 liquid handler. RPMI medium 1640-GlutaMAX™-I were added to the intermediate plate and transferred to 384-well cell culture plate, which was incubated at 37° C., 5% CO2 for 2 hours. After removal of medium from the plate, cells were lysed in lysis buffer from SureFire® Ultra™ Multiplex p-Erk and total Erk assay kit (PerkinElmer MPSU-PTERK) containing Halt™ Protease and Phosphotase inhibitor cocktail (ThermoFisher Scientific 78446) at room temperature with constant shaking at 300 rpm for 30 minutes. The cell lysates were then transferred to OptiPlate-384 plate (PerkinElmer 6005620) and the phosphorylation of Erk and total Erk levels were detected by Alpha SureFire Ultra Multiplex p-Erk kit PerkinElmer MPSU-PTERK) following the manufacturer's protocol. Assay plates were read on an EnVision Multimode Plate Reader (PerkinElmer), and the ratio of p-Erk vs total Erk in each well was used as the final readout. Dose response curves were analyzed using a 4-parameter logistic model to calculate IC50 values using spotfire software.

[1] = biological target: recombinant biotinylated KRAS protein containing G12C/C51S/C80L/C118S mutations (Biotinylated KRAS G12C protein) (Homo sapiens (Human), UniProt P01116, C118S/C51S/C80L/G12C); assay: SOS-catalyzed nucleotide exchange assay (TR-FRET); format: biochemical; conditions: apparent potency; preincubation time of 60 minutes prior to addition of SOS
Experimental: The SOS-catalyzed nucleotide exchange assay utilizes a preformed complex of recombinant biotinylated KRAS protein containing G12C/C51S/C80L/C118S mutations (183 amino acids; biotin on K10; leader sequence which is an AviTag; referred to as SEQ ID NO: 1 or “Biotinylated KRAS G12C protein” hereafter), Bodipy-GDP, and Terbium-streptavidin. Compounds are added to this complex and then after 60 minutes incubation time, the mixture is treated with recombinant SOS protein and unlabeled GTP. Small molecule inhibitors stabilize the Bodipy-GDP complex whereas the untreated protein rapidly exchanges Bodipy-GDP for unlabeled GTP resulting in reduced TR-FRET signal.
Biotinylated KRAS G12C protein (SEQ ID NO: 1) is diluted to 2 μM in an EDTA buffer (20 mM HEPES, 150 mM sodium chloride, 10 mM EDTA, and 0.01% Tween) and incubated at room temperature for one hour. This mixture is then further diluted to 90 nM in an assay buffer (20 mM HEPES, 150 mM sodium chloride, 10 mM magnesium chloride, and 0.005% Tween) containing 15 nM of Terbium-Streptavidin (Invitrogen, catalog #PV3577) and 900 nM of Bodipy-GDP and incubated at room temperature for six hours. This solution is referred to as Biotinylated KRAS G12C mixture.
Each test compound (10 mM stock in DMSO) is diluted in DMSO to make a 10-point, 3-fold dilution series in a 384-well low dead volume microplate (Labcyte, catalog #LP-0200). Once titrations are made, 10 nL of the diluted compounds is acoustically dispensed into a 384-well plate (Corning, catalog #3820) using an Echo 550 (Labcyte).
Each well of the plate receives 3 μL Biotinylated KRAS G12C mixture that had been incubating for six hours and 3 μL of assay buffer using a BioRAPTR (Beckman Coulter) and is incubated at room temperature for 60 minutes. Each well then receives 3 μL of 240 nM recombinant human SOS protein and 9 mM GTP (Sigma, G8877) in assay buffer and is incubated at room temperature for 60 minutes.
The time-resolved fluorescence resonance energy transfer signal of the plate is measured on an Envision (PerkinElmer) plate reader: Excitation filter=340 nm; emission1=495 nm; emission2=520 nm; dichroic mirror=D400/D505; delay time=100 μs. The signal of each well is determined as the ratio of the emission at 520 nm to that at 495 nm. Percent effect of each well is determined after normalization to control wells containing DMSO (no effect) or a saturating concentration of inhibitor (max effect). The apparent effect as a function of compound concentration is fit to a four parameter logistic equation.

Chain of recombinant biotinylated KRAS protein containing G12C/C51S/C80L/C118S mutations (Biotinylated KRAS G12C protein) (P01116 other isoform, or with tags, fused parts or gaps, stated change not applied): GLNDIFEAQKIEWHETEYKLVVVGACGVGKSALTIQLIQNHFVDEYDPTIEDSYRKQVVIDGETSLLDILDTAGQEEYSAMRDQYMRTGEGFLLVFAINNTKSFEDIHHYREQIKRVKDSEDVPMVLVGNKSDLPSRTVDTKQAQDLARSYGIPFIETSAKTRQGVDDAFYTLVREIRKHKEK

IC50 (NCI-H358 cells; Homo sapiens, NCI-H358, 2 h) [nM] | IC50 [1] [nM] | IC50 (NCI-H358 cells) [nM] | SMILES
23400 | 990 |  | C=CC(=O)N1CCN(c2nc(OC[C@@H]3CCCN3C)nc3c2CCC2(CCCc4ccnc(O)c42)O3)C[C@@H]1CC#N (mixture of isomers) [Example 8, 2-((2S)-1-acryloyl-4-(1-hydroxy-2′-(((S)-1-methylpyrrolidin-2-yl)methoxy)-5′,6,6′,7-tetrahydro-5H-spiro[isoquinoline-8,7′-pyrano[2,3-d]pyrimidin]-4′-yl)piperazin-2-yl)acetonitrile]
 | 6.37 | 495 | C=CC(=O)N1CCN(c2nc(OC[C@@H]3CCCN3C)nc3c2CCC2(CCCc4cccc(C)c42)O3)C[C@@H]1CC#N (single isomer, unassigned) [Example 1a]
 | 54.9 | 2860 | C=CC(=O)N1CCN(c2nc(OC[C@@H]3CCCN3C)nc3c2CCC2(CCCc4cccc(C)c42)O3)C[C@@H]1CC#N (single isomer, unassigned) [Example 1b]
154 | 13.7 |  | C=CC(=O)N1CCN(c2nc(OC[C@@H]3CCCN3C)nc3c2CCC2(CCCc4ccccc42)O3)C[C@@H]1CC#N (single isomer, unassigned) [Example 2a]
 | 14.7 | 268 | C=CC(=O)N1CCN(c2nc(OC[C@@H]3CCCN3C)nc3c2CCC2(CCCc4ccccc42)O3)C[C@@H]1CC#N (single isomer, unassigned) [Example 2b]
 | 14.5 | 506 | C=CC(=O)N1CCN(c2nc(OC[C@@H]3CCCN3C)nc3c2CCC2(CCCc4c(F)cccc42)O3)C[C@@H]1CC#N (single isomer, unassigned) [Example 3a]
 | 51 | 1120 | C=CC(=O)N1CCN(c2nc(OC[C@@H]3CCCN3C)nc3c2CCC2(CCCc4c(F)cccc42)O3)C[C@@H]1CC#N (single isomer, unassigned) [Example 3b]
 | 14.9 | 311 | C=CC(=O)N1CCN(c2nc(OC[C@@H]3CCCN3C)nc3c2CCC2(CCc4ccccc42)O3)C[C@@H]1CC#N (single isomer, unassigned) [Example 4a]
 | 164 | 2500 | C=CC(=O)N1CCN(c2nc(OC[C@@H]3CCCN3C)nc3c2CCC2(CCc4ccccc42)O3)C[C@@H]1CC#N (single isomer, unassigned) [Example 4b]
 | 18.7 | 1250 | C=CC(=O)N1CCN(c2nc(OCC[C@@H]3CCCN3C)nc3c2CCC2(CCCc4ccccc42)O3)C[C@@H]1CC#N (single isomer, unassigned) [Example 5a]
 | 274 | 5980 | C=CC(=O)N1CCN(c2nc(OCC[C@@H]3CCCN3C)nc3c2CCC2(CCCc4ccccc42)O3)C[C@@H]1CC#N (single isomer, unassigned) [Example 5b]
3100 | 181 |  | C=CC(=O)N1CCN(c2nc(OC[C@@H]3CCCN3C)nc3c2CCC2(CCC(C)(C)c4ccccc42)O3)C[C@@H]1CC#N (single isomer, unassigned) [Example 6a]
 | 413 | 4370 | C=CC(=O)N1CCN(c2nc(OC[C@@H]3CCCN3C)nc3c2CCC2(CCC(C)(C)c4ccccc42)O3)C[C@@H]1CC#N (single isomer, unassigned) [Example 6b]
1620 | 77.3 |  | C=CC(=O)N1CCN(c2nc(OC[C@@H]3CCCN3C)nc3c2CCC2(CCC(F)(F)c4ccccc42)O3)C[C@@H]1CC#N (single isomer, unassigned) [Example 7a]
 | 119 | 2150 | C=CC(=O)N1CCN(c2nc(OC[C@@H]3CCCN3C)nc3c2CCC2(CCC(F)(F)c4ccccc42)O3)C[C@@H]1CC#N (single isomer, unassigned) [Example 7b]
 | 40.5 | 1940 | C=CC(=O)N1CCN(c2nc(OC[C@@H]3CCCN3C)nc3c2CCC2(CCC(C)c4ccccc42)O3)C[C@@H]1CC#N (single isomer, unassigned) [Example 9a]
 | 34.2 | 1170 | C=CC(=O)N1CCN(c2nc(OC[C@@H]3CCCN3C)nc3c2CCC2(CCC(C)c4ccccc42)O3)C[C@@H]1CC#N (single isomer, unassigned) [Example 9b]
 | 110 | 1840 | C=CC(=O)N1CCN(c2nc(OC[C@@H]3CCCN3C)nc3c2CCC2(CCC(C)c4ccccc42)O3)C[C@@H]1CC#N (single isomer, unassigned) [Example 9c]
 | 149 | 2410 | C=CC(=O)N1CCN(c2nc(OC[C@@H]3CCCN3C)nc3c2CCC2(CCC(C)c4ccccc42)O3)C[C@@H]1CC#N (single isomer, unassigned) [Example 9d]
6640 | 145 |  | C=CC(=O)N1CCN(c2nc(OC[C@@H]3CCCN3C)nc3c2CCC2(O3)c3ccccc3CCC2C)C[C@@H]1CC#N (single isomer, unassigned) [Example 10a]
 | 50 | 4530 | C=CC(=O)N1CCN(c2nc(OC[C@@H]3CCCN3C)nc3c2CCC2(O3)c3ccccc3CCC2C)C[C@@H]1CC#N (single isomer, unassigned) [Example 10b]
 | 46.7 | 1800 | C=CC(=O)N1CCN(c2nc(OC[C@@H]3CCCN3C)nc3c2CCC2(CCCc4c(C)cc(C)cc42)O3)C[C@@H]1CC#N (single isomer, unassigned) [Example 11a]
 | 661 | 28600 | C=CC(=O)N1CCN(c2nc(OC[C@@H]3CCCN3C)nc3c2CCC2(CCCc4c(C)cc(C)cc42)O3)C[C@@H]1CC#N (single isomer, unassigned) [Example 11b]
 | 99.7 | 1330 | C=CC(=O)N1CCN(c2nc(OCC3(CN(C)C)CC3)nc3c2CCC2(CCCc4ccccc42)O3)C[C@@H]1CC#N (single isomer, unassigned) [Example 12a]
 | 728 | 5620 | C=CC(=O)N1CCN(c2nc(OCC3(CN(C)C)CC3)nc3c2CCC2(CCCc4ccccc42)O3)C[C@@H]1CC#N (single isomer, unassigned) [Example 12b]
 | 43.4 | 638 | C=CC(=O)N1CCN(c2nc(OC[C@@H]3CCCN3CC)nc3c2CCC2(CCCc4ccccc42)O3)C[C@@H]1CC#N (single isomer, unassigned) [Example 15a]
 | 84 | 1810 | C=CC(=O)N1CCN(c2nc(OC[C@@H]3CCCN3CC)nc3c2CCC2(CCCc4ccccc42)O3)C[C@@H]1CC#N (single isomer, unassigned) [Example 15b]
 | 18.9 | 246 | C=CC(=O)N1CCN(c2nc(OC[C@@H]3CC(F)(F)CN3C)nc3c2CCC2(CCCc4ccccc42)O3)C[C@@H]1CC#N (single isomer, unassigned) [Example 16a]
 | 109 | 1650 | C=CC(=O)N1CCN(c2nc(OC[C@@H]3CC(F)(F)CN3C)nc3c2CCC2(CCCc4ccccc42)O3)C[C@@H]1CC#N (single isomer, unassigned) [Example 16b]
6680 | 823 |  | C=C(F)C(=O)N1CCN(c2nc(OC[C@@H]3CCCN3C)nc3c2CCC2(CCCc4ccccc42)O3)C[C@@H]1CC#N (single isomer, unassigned) [Example 17a]
